Entries after “also recorded” stand apart in the source; their conditions may differ.
Tests used:
human and porcine sclera = human and porcine sclera in vitro; cited from earlier work
[1] = tested on: sclera of enucleated eyes; experiment: Ocular inflation model of myopia (enucleated eyes, elevated IOP 85 mmHg); parameters: species or system New Zealand White Rabbits; settings: 0.3% soak 5 min, 10 mW/cm^2, 365 nm, 10 min anterior and 10 min posterior
Experimental: Stabilization of ocular shape is evaluated in vitro using pairs of enucleated eyes from young (˜1-2 weeks) New Zealand White Rabbits, one eye treated and the fellow eye as control. To mimic and accelerate aspects of the loading geometry present in vivo, the intact globes are mechanically tested by imposing an elevated intraocular pressure: a syringe connects the intraocular fluid to an elevated reservoir of Dulbecco's phosphate buffered saline (DPBS) while the exterior of the eye is immersed in DPBS at ambient pressure (FIG. 1).
The size and shape of the globes are simultaneously recorded from two orthogonal perspectives over time. To prepare eyes for the tests, the epithelium is optionally removed from the cornea with a cotton swab, and external fat is removed from the globe. (Note that permeation of the photoinitiator into tissue is examined separately below.) The eyes are then soaked in control (Dulbecco's PBS) or treatment solutions (e.g., 0.029 mM Eosin Y, 90 mM TEOA, in DPBS) for 5 min. After soaking, the eyes are patted dry to remove extra solution from the surface, and then irradiated for 5 min from the front and 5 min from the back with, e.g., 34 mW/cm^2 at 500±50 nm for Eosin Y/TEOA. […] Photographs taken every 10 minutes for approximately 24 hours are analyzed to quantify the extension of the cornea and sclera.

porcine sclera sections = experiment: Rheometric analysis of sclera sections (modulus pre- and post-treatment); settings: photoinitiator alone, compared with photoinitiator plus PEGDM
Text: The ability of initiator with or without crosslinking compounds to strengthen the sclera was initially evaluated using rheometric analysis of tissue sections. Sclera sections (8 mm diameter) were cut from porcine eyes and tested on a TA Instruments AR1000 rheometer (using a cleated parallel plate geometry) to quantify changes in modulus pre- and post-treatment. Two example photoinitiators were selected for initial evaluation.

[2] = after use of topically applied proparacaine (Ehlers et al.); cited from earlier work

Compound	increase of Young's modulus compared to untreated controls (human and porcine sclera) [%]	other results
Cc1cc2nc3c(=O)[nH]c(=O)nc-3n(C[C@H](O)[C@H](O)[C@H](O)CO)c2cc1C [riboflavin-UVA, riboflavin]	29	
O=CC(O)CO (stereo not drawn) [glyceraldehyde]	34	
CC(C)(O)C(=O)c1ccc(OCCO)cc1 [compound 12959, 2-hydroxy-1-[4-(2-hydroxyethoxy)phenyl]-2-methyl-1-propanone]		stabilization of eye shape / sclera under elevated IOP [1]: hold a steady shape; also recorded: stabilize the sclera; increases in modulus (porcine sclera sections): comparable increases in modulus
CCCOc1ccc(C(=O)OCCN(CC)CC)cc1N [proparacaine]		increases in drug delivery to the aqueous [2]: 4 fold
O=CCCCC=O [Glutaraldehyde]	122	

Source: patent publication US8414911B2, “Photochemical therapy to affect mechanical and/or chemical properties of body tissue” (The Regents of the University of California, priority 2006, dated 2013)
